Assay results: patent US12208088B2 (Genentech, Inc., priority 2018, dated 2025)

Molecular target: HPK1 (Homo sapiens (Human), UniProt Q92918)
Experiment: HPK1 Lantha binding assay ("Lanth")
Conditions: binding assays; Morrison Ki fit
Method in brief: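 Ki values are from Morrison-equation fitting of 665/615 nm TR-FRET signals, taking enzyme level, tracer level and tracer Kd into account. The assay mix held HPK1 (2 nM), Eu-anti-GST antibody (2 nM) and Tracer222 (15 nM). Incubations were two 1 h steps at 23 °C, on 5-fold serial compound dilutions.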

Sequence of HPK1 (Q92918 1-346 limits assumed): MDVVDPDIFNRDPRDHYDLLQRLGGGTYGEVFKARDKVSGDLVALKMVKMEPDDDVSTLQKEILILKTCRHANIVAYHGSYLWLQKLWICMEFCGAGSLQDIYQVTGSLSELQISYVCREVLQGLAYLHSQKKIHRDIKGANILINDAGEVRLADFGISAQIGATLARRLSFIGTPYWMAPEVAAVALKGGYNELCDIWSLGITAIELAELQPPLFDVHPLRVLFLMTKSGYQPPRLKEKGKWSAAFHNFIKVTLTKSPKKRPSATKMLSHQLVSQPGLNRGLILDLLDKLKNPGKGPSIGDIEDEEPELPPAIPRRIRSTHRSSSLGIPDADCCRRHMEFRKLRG

Ki [nM] | SMILES
35.6 | CN(C)C(=O)c1cc(-c2cnc3c(c2)C2(CC2)CN3)ccc1N [Compound 2, 2-Amino-5-(1′,2′-dihydrospiro[cyclopropane-1,3′-pyrrolo[2,3-b]pyridin]-5′-yl)-N,N-dimethylbenzamide]
40.3 | O=C1COCCN1c1cccc(-c2cnc3c(c2)C2(CC2)CN3)c1 [Compound 3, 4-(3-(1′,2′-Dihydrospiro[cyclopropane-1,3′-pyrrolo[2,3-b]pyridin]-5′-yl)phenyl)morpholin-3-one]
71.7 | CN(C)C(=O)c1cc(-c2cnc3c(c2)C2(CCC2)CN3)ccc1N [Compound 4, 2-Amino-5-(1′,2′-dihydrospiro[cyclobutane-1,3′-pyrrolo[2,3-b]pyridin]-5′-yl)-N,N-dimethylbenzamide]
98.7 | O=C1COCCN1c1cccc(-c2cnc3c(c2)C2(CCC2)CN3)c1 [Compound 5, 4-(3-(1′,2′-Dihydrospiro[cyclobutane-1,3′-pyrrolo[2,3-b]pyridin]-5′-yl)phenyl)morpholin-3-one]
22.7 | CN(C)C(=O)c1c(N)ccc(-c2cnc3c(c2)C2(CC2)CN3)c1F [Compound 6, 6-Amino-3-(1′,2′-dihydrospiro[cyclopropane-1,3′-pyrrolo[2,3-b]pyridin]-5′-yl)-2-fluoro-N,N-dimethylbenzamide]
21.6 | CN(CCO)C(=O)c1c(N)ccc(-c2cnc3c(c2)C2(CC2)CN3)c1F [Compound 7, 6-amino-3-(1′,2′-dihydrospiro[cyclopropane-1,3′-pyrrolo[2,3-b]pyridin]-5′-yl)-2-fluoro-N-(2-hydroxyethyl)-N-methylbenzamide]
7.71 | CN(C)C(=O)c1c(N)ccc(-c2cnc3c(c2Cl)C2(CC2)CN3)c1F [Compound 8, 6-Amino-3-(4′-chloro-1′,2′-dihydrospiro[cyclopropane-1,3′-pyrrolo[2,3-b]pyridin]-5′-yl)-2-fluoro-N,N-dimethylbenzamide]
38.9 | O=C1COCCN1c1cccc(-c2cnc3c(c2)C2(CC2)CN3)c1F [Compound 9, 4-(3-(1′,2′-Dihydrospiro[cyclopropane-1,3′-pyrrolo[2,3-b]pyridin]-5′-yl)-2-fluorophenyl)morpholin-3-one]
12.7 | Nc1cc(-c2cnc3c(c2)C2(CC2)CN3)cc(-c2ncccc2CO)c1 [Compound 10, (2-(3-Amino-5-(1′,2′-dihydrospiro[cyclopropane-1,3′-pyrrolo[2,3-b]pyridin]-5′-yl)phenyl)pyridin-3-yl)methanol]
91.2 | NS(=O)(=O)Cc1ccc(-c2cnc3c(c2)C2(CC2)CN3)cc1 [Compound 11, (4-(1′,2′-Dihydrospiro[cyclopropane-1,3′-pyrrolo[2,3-b]pyridin]-5′-yl)phenyl)methanesulfonamide]
37.6 | CN(CCO)C(=O)c1cccc(-c2cnc3c(c2)C2(CC2)CN3)c1F [Compound 12, 3-(1′,2′-Dihydrospiro[cyclopropane-1,3′-pyrrolo[2,3-b]pyridin]-5′-yl)-2-fluoro-N-(2-hydroxyethyl)-N-methylbenzamide]
21.6 | CC1(C)C(=O)Nc2ccc(-c3cnc4c(c3)C3(CC3)CN4)cc21 [Compound 13, 5-(1′,2′-dihydrospiro[cyclopropane-1,3′-pyrrolo[2,3-b]pyridin]-5′-yl)-3,3-dimethylindolin-2-one]
863 | CN(C)C(=O)c1c(N)ccc(-c2cnc3c(c2)C2(CC2)CN3)c1Cl [Compound 14, 6-amino-2-chloro-3-(1′,2′-dihydrospiro[cyclopropane-1,3′-pyrrolo[2,3-b]pyridin]-5′-yl)-N,N-dimethylbenzamide]
122 | CC1Nc2ncc(-c3ccc(N)c(C(=O)N(C)C)c3F)cc2C12CC2 (centres unmarked) [Compound 15, 6-Amino-2-fluoro-N,N-dimethyl-3-(2′-methyl-1′,2′-dihydrospiro[cyclopropane-1,3′-pyrrolo[2,3-b]pyridin]-5′-yl)benzamide]
521 | CN(C)C(=O)c1cc(CO)cc(-c2cnc3c(c2)C2(CC2)CN3)c1 [Compound 16, 3-(1′,2′-dihydrospiro[cyclopropane-1,3′-pyrrolo[2,3-b]pyridin]-5′-yl)-5-(hydroxymethyl)-N,N-dimethylbenzamide]
32.8 | Nc1ccc(-c2cnc3c(c2)C2(CC2)CN3)c(F)c1C(=O)N1CCCC1CO (centres unmarked) [Compound 17, (6-amino-3-(1′,2′-dihydrospiro[cyclopropane-1,3′-pyrrolo[2,3-b]pyridin]-5′-yl)-2-fluorophenyl)(2-(hydroxymethyl)pyrrolidin-1-yl)methanone]
259 | CN(C)C(=O)c1cc(-c2cnc3c(c2)C2(CC2)CN3)ccc1CO [Compound 18, 5-(1′,2′-dihydrospiro[cyclopropane-1,3′-pyrrolo[2,3-b]pyridin]-5′-yl)-2-(hydroxymethyl)-N,N-dimethylbenzamide]
20.8 | CN(C(=O)c1c(N)ccc(-c2cnc3c(c2)C2(CC2)CN3)c1F)C(C)(C)CO [Compound 19, 6-amino-3-(1′,2′-dihydrospiro[cyclopropane-1,3′-pyrrolo[2,3-b]pyridin]-5′-yl)-2-fluoro-N-(1-hydroxy-2-methylpropan-2-yl)-N-methylbenzamide]
212 | CC1(O)C(=O)Nc2ccc(-c3cnc4c(c3)C3(CC3)CN4)cc21 (centres unmarked) [Compound 20, 5-(1′,2′-dihydrospiro[cyclopropane-1,3′-pyrrolo[2,3-b]pyridin]-5′-yl)-3-hydroxy-3-methylindolin-2-one]
297 | CN(C)S(=O)(=O)c1cccc(-c2cnc3c(c2)C2(CC2)CN3)c1F [Compound 21, 3-(1′,2′-dihydrospiro[cyclopropane-1,3′-pyrrolo[2,3-b]pyridin]-5′-yl)-2-fluoro-N,N-dimethylbenzenesulfonamide]
869 | CNS(=O)(=O)c1cccc(-c2cnc3c(c2)C2(CC2)CN3)c1F [Compound 22, 3-(1′,2′-dihydrospiro[cyclopropane-1,3′-pyrrolo[2,3-b]pyridin]-5′-yl)-2-fluoro-N-methylbenzenesulfonamide]
88.7 | CN(C)C(=O)c1c(N)ccc(-c2cnc3c(c2)C2(CN3)CC2(C)C)c1F (centres unmarked) [Compound 24, 6-Amino-3-(2,2-dimethyl-1′,2′-dihydrospiro[cyclopropane-1,3′-pyrrolo[2,3-b]pyridin]-5′-yl)-2-fluoro-N,N-dimethylbenzamide]
446 | CN(C)C(=O)c1c(N)ccc(-c2cnc3c(c2)C2(CN3)C3COCC32)c1F (centres unmarked) [Compound 26, 6-amino-3-(1′,2′-dihydro-3-oxaspiro[bicyclo[3.1.0]hexane-6,3′-pyrrolo[2,3-b]pyridin]-5′-yl)-2-fluoro-N,N-dimethylbenzamide]
6.71 | CN(C)C(=O)c1c(N)ccc(-c2cnc3c(c2Cl)C2(CCCC2)CN3)c1F [Compound 27, 6-Amino-3-(4′-chloro-1′,2′-dihydrospiro[cyclopentane-1,3′-pyrrolo[2,3-b]pyridin]-5′-yl)-2-fluoro-N,N-dimethylbenzamide]
6.95 | CN(C)C(=O)c1c(N)ccc(-c2cnc3c(c2Cl)C2(CC=CC2)CN3)c1F [Compound 28, 6-Amino-3-(4′-chloro-1′,2′-dihydrospiro[cyclopentane-1,3′-pyrrolo[2,3-b]pyridin]-3-en-5′-yl)-2-fluoro-N,N-dimethylbenzamide]

SMILES | Ki [nM]
O=C1Nc2ccc(-c3cnc4c(c3)C3(CC3)CN4)cc2C1(O)C1CC1 (centres unmarked) [Compound 23, 3-cyclopropyl-5-(1′,2′-dihydrospiro[cyclopropane-1,3′-pyrrolo[2,3-b]pyridin]-5′-yl)-3-hydroxyindolin-2-one] | 184
